Reference: ChEMBL document CHEMBL1151608, “Unusual cytotoxicities of 5-(acylethynyl)-1-(2-hydroxyethoxy)methyluracils” (Bioorg Med Chem Lett, 1996)

Key:
Format in all cases: functional, cell-based
CCRF-CEM = assay: In vitro cytotoxic effect of compound was measured against CCRF-CEM human lymphoblastoid cells.
L1210 = assay: In vitro cytotoxic effect of compound was measured against L1210/0 tumor cells in mouse
HT-29 = assay: In vitro cytotoxic effect of compound was measured against HT-29 tumor cells.; settings: Homo sapiens

Compound	IC50 (CCRF-CEM) [µM]	IC50 (L1210) [µM]	IC50 (HT-29) [µM]
COc1ccc(C(=O)C#Cc2cn(COCCO)c(=O)[nH]c2=O)cc1	1.6	1.5	20
Cc1ccc(C(=O)C#Cc2cn(COCCO)c(=O)[nH]c2=O)cc1	0.7	0.9	8
Cc1ccccc1C(=O)C#Cc1cn(COCCO)c(=O)[nH]c1=O	0.9	2.2	25
Cc1cccc(C(=O)C#Cc2cn(COCCO)c(=O)[nH]c2=O)c1	0.6	0.7	14
